Laboratory results: patent US20100267561A1, “HERBICIDAL PYRIDAZINONE DERIVATIVES” (priority 2007, published 2010)

Assays:
Assay in all cases: Test B pre-/postemergence plant response
Type in all cases: in vivo
[1] = test system: Italian ryegrass (Lolium multiflorum); conditions: for Ryegrass, Italian plant response rating: 8 g ai/ha
How it was run: (§1)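 Visual scoring from 0 (no effect) to 100 (complete control) against untreated controls was done 13 to 15 days after greenhouse treatment. Chemicals were formulated in a surfactant-containing non-phytotoxic solvent and applied to soil preemergence or to 1- to 4-leaf (2-18 cm) plants postemergence.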

[2] = test system: surinam grass (Brachiaria decumbens); conditions: for Surinam Grass plant response rating: 8 g ai/ha
How it was run: as §1

[3] = test system: common (oilseed) sunflower (Helianthus annuus); conditions: Preemergence
How it was run: as §1

[4] = test system: common ragweed (Ambrosia elation); conditions: for Ragweed plant response rating: 8 g ai/ha
How it was run: as §1

[5] = test system: downy bromegrass (Bromus tectorum); conditions: for Bromegrass, Downy plant response rating: 8 g ai/ha
How it was run: as §1

[6] = test system: pigweed (Amaranthus retroflexus); conditions: for Pigweed plant response rating: 8 g ai/ha
How it was run: as §1

kochia (Kochia scoparia) = conditions: for Plant response rating, Kochia: Postemergence
How it was run: as §1

soybean (Glycine max) = test system: soybean (Glycine max)
How it was run: as §1

[7] = test system: cocklebur (Xanthium strumarium); conditions: for Cocklebur plant response rating: 8 g ai/ha
How it was run: as §1

[8] = test system: Russian thistle (Salsola iberica); conditions: Preemergence
How it was run: as §1

[9] = test system: woolly cupgrass (Eriochloa villosa); conditions: for Cupgrass, Woolly plant response rating: 8 g ai/ha
How it was run: as §1

[10] = test system: goosegrass (Eleusine indica); conditions: for Goosegrass plant response rating: 8 g ai/ha
How it was run: as §1

[11] = test system: large crabgrass (Digitaria sanguinalis); conditions: for Crabgrass, Large plant response rating: 8 g ai/ha
How it was run: as §1

[12] = Postemergence, 16 g ai/ha, scale 0 to 100
[13] = Postemergence, 31 g ai/ha, scale 0 to 100, 0 no effect, 100 complete control
[14] = Postemergence, 62 g ai/ha, scale 0 to 100, 0 no effect, 100 complete control
[15] = Preemergence, 16 g ai/ha, scale 0 to 100 (0 no effect, 100 complete control)
[16] = Preemergence, 31 g ai/ha, 0 to 100 scale, 0 no effect, 100 complete control
[17] = Preemergence, 62 g ai/ha, scale 0 to 100
[18] = 16 g ai/ha, scale 0 to 100 (0 no effect, 100 complete control)
[19] = 31 g ai/ha, 0 to 100 scale, 0 no effect, 100 complete control
[20] = 8 g ai/ha, postemergence, 0-100 scale

Cn1ncc(O)c(-c2nn(-c3ccc(Cl)cc3)cc2Cl)c1=O [Compound 28]
95: Plant response rating, Cupgrass, Woolly [9, 13] | Plant response rating, Cupgrass, Woolly [9, 14]
30: Plant response rating, Cupgrass, Woolly [9, 15]
5: Plant response rating, Bromegrass, Downy [5, 12]
100: Plant response rating, Ryegrass, Italian [1, 16] | Plant response rating, Ryegrass, Italian [1, 17] | Plant response rating, Surinam Grass [2, 17] | Plant response rating, Goosegrass [10, 15] | Plant response rating, Goosegrass [10, 16] | Plant response rating, Goosegrass [10, 17] | Plant response rating, Crabgrass, Large [11, 16] | Plant response rating, Crabgrass, Large [11, 17]
65: Surinam Grass plant response rating ([2]; postemergence, 0-100 scale) | Plant response rating, Surinam Grass [2, 12] | Plant response rating, Surinam Grass [2, 15] | Goosegrass plant response rating ([10]; postemergence, 0-100 scale) | Crabgrass, Large plant response rating ([11]; Preemergence, scale 0 to 100)
75: Plant response rating, Goosegrass [10, 12] | Plant response rating, Crabgrass, Large [11, 12]
0: Ryegrass, Italian plant response rating ([1]; Preemergence, scale 0 to 100) | Surinam Grass plant response rating ([2]; Preemergence, scale 0 to 100) | Plant response rating, Sunflower [3, 18] | Plant response rating, Sunflower [3, 19] | Plant response rating, Sunflower ([3]; 62 g ai/ha, scale 0 to 100) | Sunflower plant response rating ([3]; 8 g ai/ha, scale 0 to 100) | Ragweed plant response rating ([4]; postemergence, 0-100 scale) | Plant response rating, Ragweed [4, 12] | Plant response rating, Ragweed [4, 13] | Plant response rating, Ragweed [4, 14] | Plant response rating, Ragweed [4, 15] | Plant response rating, Ragweed [4, 16] | Plant response rating, Ragweed [4, 17] | Ragweed plant response rating ([4]; Preemergence, scale 0 to 100) | Bromegrass, Downy plant response rating ([5]; postemergence, 0-100 scale) | Pigweed plant response rating ([6]; postemergence, 0-100 scale) | Plant response rating, Pigweed [6, 12] | Plant response rating, Pigweed [6, 13] | Plant response rating, Pigweed [6, 14] | Plant response rating, Pigweed [6, 15] | Plant response rating, Pigweed [6, 16] | Plant response rating, Pigweed [6, 17] | Pigweed plant response rating ([6]; Preemergence, scale 0 to 100) | Kochia plant response rating (kochia (Kochia scoparia); [20]) | Plant response rating, Kochia (kochia (Kochia scoparia); 16 g ai/ha, scale 0 to 100) | Plant response rating, Kochia (kochia (Kochia scoparia); 31 g ai/ha, scale 0 to 100, 0 no effect, 100 complete control) | Plant response rating, Kochia (kochia (Kochia scoparia); 62 g ai/ha, scale 0 to 100, 0 no effect, 100 complete control) | Soybean plant response rating (soybean (Glycine max); [20]) | Plant response rating, Soybean (soybean (Glycine max); [12]) | Plant response rating, Soybean (soybean (Glycine max); [16]) | Plant response rating, Soybean (soybean (Glycine max); [17]) | Cocklebur plant response rating ([7]; postemergence, 0-100 scale) | Plant response rating, Cocklebur [7, 12] | Plant response rating, Cocklebur [7, 13] | Plant response rating, Cocklebur [7, 14] | Plant response rating, Cocklebur [7, 15] | Plant response rating, Cocklebur [7, 16] | Plant response rating, Cocklebur [7, 17] | Cocklebur plant response rating ([7]; Preemergence, scale 0 to 100) | Plant response rating, Russian Thistle [8, 18] | Plant response rating, Russian Thistle [8, 19] | Plant response rating, Russian Thistle ([8]; 62 g ai/ha, scale 0 to 100) | Russian Thistle plant response rating ([8]; 8 g ai/ha, scale 0 to 100) | Cupgrass, Woolly plant response rating ([9]; Preemergence, scale 0 to 100)
50: Plant response rating, Bromegrass, Downy [5, 16] | Plant response rating, Bromegrass, Downy [5, 17] | Cupgrass, Woolly plant response rating ([9]; postemergence, 0-100 scale)
40: Ryegrass, Italian plant response rating ([1]; postemergence, 0-100 scale) | Plant response rating, Bromegrass, Downy [5, 15]
98: Plant response rating, Ryegrass, Italian [1, 14] | Plant response rating, Surinam Grass [2, 16] | Plant response rating, Cupgrass, Woolly [9, 16] | Plant response rating, Cupgrass, Woolly [9, 17] | Plant response rating, Crabgrass, Large [11, 14] | Plant response rating, Crabgrass, Large [11, 15]
20: Plant response rating, Bromegrass, Downy [5, 14] | Bromegrass, Downy plant response rating ([5]; Preemergence, scale 0 to 100) | Plant response rating, Soybean (soybean (Glycine max); [14])
80: Plant response rating, Ryegrass, Italian [1, 15] | Plant response rating, Goosegrass [10, 13] | Goosegrass plant response rating ([10]; Preemergence, scale 0 to 100) | Plant response rating, Crabgrass, Large [11, 13]
60: Crabgrass, Large plant response rating ([11]; postemergence, 0-100 scale)
90: Plant response rating, Surinam Grass [2, 14] | Plant response rating, Goosegrass [10, 14]
55: Plant response rating, Ryegrass, Italian [1, 12] | Plant response rating, Ryegrass, Italian [1, 13] | Plant response rating, Cupgrass, Woolly [9, 12]
10: Plant response rating, Bromegrass, Downy [5, 13]
